Laboratory results reported in patent US20230242474A1, “LIPID COMPOUND AND THE COMPOSITION THEREOF” (GUANGZHOU RIBOBIO CO., LTD, priority 2020, published 2023).
Where “and” joins values, the source holds several entries; their conditions need not be identical. Identical values can stand only once. Like-named read-outs stand apart in the source and are kept apart here.

Legend:
[1] = type: physicochemical
[2] = test system: Wistar rats; experiment: Safety evaluation of LNP: acute toxicity test in rat; type: in vivo; design: key to Histopathological result, Muscle tissue / Histopathological result, Heart / Histopathological result, Liver / Histopathological result, Kidney / Histopathological result, Spleen / Histopathological result, Thymus / Histopathological result, Lymph nodes / Histopathological result, Pancreas: ″—″ means no abnormality
Description: Wistar rats including 4 males and 4 females, with a weight difference of no more than 10%, were selected and randomly divided into two groups: solvent control group and tested substance group. The concentration used in the measurement was 2 mg/mL. Each animal was administered 3 times a day with the volume of each injection as 250 μl. The administration interval was 4 hours. Alternate administration to the left and right legs were performed. The total dosage level was 1.50 mg per rat, which was equivalent to 1200 times the maximum unit weight dosage level for human (assuming the maximum dosage level for human is 0.25 mg). Clinical observation was recorded as follows. Within 24 hours after administration, clinical observation was carried out every hour. Within 24-72 hours after administration, clinical observation was carried out once every 6 hours. Within 4-14 days after administration, clinical observation was carried out once a day. The symptoms of toxicity, the time when the symptoms appeared and disappeared, and the time of death (if occurred) were recorded. Body weight was recorded once a day after administration, and food intake was recorded every 2 days after administration. 14 days after the administration, all the remaining animals were weighed, then euthanized, and major organs were obtained by anatomy. Heart, liver, spleen, lung, kidney, thymus, lymph node, were weighted and relative organ weight (the organ weight/the subject weight×100%; also known as organ coefficient) was calculated. After anatomy, the heart, liver, spleen, lung, kidney, intestine, thymus, lymph node, muscle tissue at the injection site and other organs with pathological changes observed were stored in a fixation solution, and the pathology of each organ was examined by H&E staining. Lesion severity scores were given according to the table below.
Specifically, the body weight of male rats in the solvent control group continued to increase. […] The food intake per rat in the solvent control group within 24 hours was stable, within a range of 18-35 grams.

[3] = test system: BALB/c mice; experiment: Transfection efficiency: in vivo bioluminescence of luciferase mRNA encapsulated by different LNP; settings: intramuscular injection, 1 μg/ mice
Description: All animals were kept in adaptive feeding for more than 7 days before experiments, free to uptake food and drink water during experimental period, illumination 12/12 h alternating light and dark, room temperature was 20-26° C., humidity was 40-70%.
Experimental method: female BALB/c mice, encapsulated luciferase mRNA with different LNP by four different administrations which included subcutaneous injection (under the armpit), tail vein injection, intraperitoneal injection, intramuscular injection (the tibialis anterior muscle of mouse hind leg); 3, 6, 24, 48 h after administration, applied in vivo fluorescence imaging system (brand: Bruker, model: XTREME) for bioluminescence detection, the specific steps were as follows: substrate preparation: took appropriate amount of substrate Luciferin (brand: Promega) and added saline to make a 10 mg/ml solution, avoided light, injected 100 μl solution into each mouse intraperitoneally. […] Put the anesthetized mouse into machine, set the bioluminescence setting and took the photos, captured the photograph and then adjusted the upper and lower values of photograph, then collected data on the concentrated distribution of fluorescence (e.g., fluorescence intensity, average photons number, and total photons number) and processed data. Statistical analysis: the in vivo imaging outcome were shown in the fluorescence intensity or average of total photons number of different animal in the same tested group, which were used to judge whether the fluorescence intensity or total photon number of luciferase mRNA encapsulated by different LNP were high or low.
The fluorescence intensity and total photons number reflects the transfection efficiency of LNP, the value is higher, referring to the efficiency of delivering encapsulated substance into cell by LNP is higher.

[4] = test system: T lymphocytes secreting INFγ; experiment: ELISPOT count of T lymphocytes secreting INFγ after immunization with LNP-encapsulated SARS-CoV-2 S protein mRNA; type: in vivo, BALB/c mice; settings: S protein (1 μg) stimulation, intramuscular Day 0 and Day 14, spleens after 7 days
[5] = test system: S protein specific IgG antibody; type: in vivo, BALB/c mice; settings: 14 days after the second immunization, LNP with S protein mRNA, FIG. 5
[6] = LNP empty vector used in the rat safety study, Table 5
[7] = LNP with SARS-CoV-2 S protein mRNA, Table 9
[8] = lipid nanoparticle of the ionizable lipid with mRNA, Table 1
[9] = H&E, day 14, 1.50 mg per rat, animals 1001 and 1101
[10] = empty LNP, 1.50 mg per rat i.m., day 14, average of male, female rat
[11] = empty LNP, 1.50 mg per rat, day 14

For `CCCCCCOCC(COCCCCCC)OC(=O)CCCCCCCN(CCO)CCCCCCCC(=O)OC(COCCCCCC)COCCCCCC` [A18], the PDI [1, 6] was 0.088, the “Size (nm)” value [1, 6] was 147 nm and the “Encapsulated percentage (%)” value [1, 7] was 94%. The PI [1, 7] was 0.075, the “Size (nm)” value [1, 7] was 86 nm and the “Size (nm)” value ([1]; lipid nanoparticle of the ionizable lipid (ionizable lipid/phospholipid/PEG lipid/structural lipid 50/10/1.5/38.5 %) with mRNA, Table 1) was 104.8 nm. For the same compound, the “Encapsulated percentage (%)” value [1, 8] was 93.58%, the PDI [1, 8] was 0.0835 and the “Overall pathological changes after the 1200 times higher dosage level of the LNP injection” value ([2]; 1.50 mg per rat, 1200 times the maximum unit weight dosage level for human) was “only slight pathological changes in the lungs and legs”. For the same compound, the “Histopathological result, Heart” value [2, 9] was “—”, the “Histopathological result, Kidney” value [2, 9] was “—” and the “Histopathological result, Liver” value [2, 9] was “—”. For the same compound, the “Histopathological result, Lymph nodes” value [2, 9] was “—”, the “Histopathological result, Pancreas” value [2, 9] was “—” and the “Histopathological result, Spleen” value [2, 9] was “—”. The “Histopathological result, Thymus” value [2, 9] was “—”, the “Histopathological result, Lung” value ([2]; H&E, day 14, 1.50 mg per rat, animals 1001 and 1101, cell wraps over three grid rows: Partial stromal cell hyperplasia) was “Partial” and the “Histopathological result, Muscle tissue” value ([2]; H&E, day 14, 1.50 mg per rat, injection site, animals 1001 and 1101) was “—”. The “Body weight change of rats” value ([2]; empty LNP, 1.50 mg per rat i.m., 14 days, FIGS. 1-2) was “dropped initially, then recovered to the pre-administration level on Day 4-Day 6, and continued to increase subsequently”, the “Food intake change of rats” value ([2]; empty LNP, 1.50 mg per rat i.m., 14 days, FIGS. 3-4) was “decreased initially, and returned to normal levels on Day 4-Day 7” and the “Relative organ weight, Brain” value [2, 10] was 0.687. The “Relative organ weight, Kidney left” value [2, 10] was 0.351, the “Relative organ weight, Kidney right” value [2, 10] was 0.356 and the “Relative organ weight, Liver” value [2, 10] was 3.773. For the same compound, the “Relative organ weight, Lung” value [2, 10] was 0.413, the “Relative organ weight, Lymph nodes” value [2, 10] was 0.006 and the “Relative organ weight, Spleen” value [2, 10] was 0.250. The “Relative organ weight, Thymus” value [2, 10] was 0.149, the “Relative organ weight, Heart” value ([2]; empty LNP, 1.50 mg per rat i.m., day 14, organ weight/subject weight×100%, average of male, female rat) was 0.308 and the “Heart, liver, kidney, spleen, thymus and lymph node coefficients compared with the solvent control group” value [2, 11] was “did not show significant difference”. The “Pathological change in the lung” value [2, 11] was “proliferation of partial interstitial cells in the lung”, the “Pathological change in the muscle tissue” value [2, 11] was “a small amount of inflammatory cell infiltration in the muscle tissue” and the “Pathological changes of heart, liver, kidney, spleen, thymus, and lymph nodes” value ([2]; empty LNP, 1.50 mg per rat, day 14, compared with solvent control) was “no pathological changes”. For the same compound, the “Total photons number, Leg” value ([3]; 3 h) was 3.91E+09, the “Total photons number, Leg” value ([3]; 6 h) was 4.16E+09 and the “Total photons number, Leg” value ([3]; 24 h) was 2.90E+08. The “Elispot counted T lymphocytes secreting INFγ” value ([4]; dose 5 μg) was 161 and 153, the “Elispot counted T lymphocytes secreting INFγ” value ([4]; dose 20 μg) was 241 and 251 and the “S protein specific IgG antibody titer” value [5] was “higher titers of IgG antibodies”.
